From ChEMBL document CHEMBL1909046, “DrugMatrix in vitro pharmacology data”

Assays:
[1] = DRUGMATRIX: Leukotriene, BLT (LTB4) radioligand binding (ligand: [3H]LTB4); type: cell membranes, Membrane; settings: u-937; Not Active = under 50% inhibition at 10 µM
[2] = biological target: C-C chemokine receptor type 2 (Homo sapiens, UniProt P41597); type: cell membranes, CHO-K1, Membrane; settings: cho-k1; also: in other assays of this panel Not Active means under 50% inhibition at 10 µM
[3] = biological target: Vascular endothelial growth factor receptor 1 (Homo sapiens, UniProt P17948); type: cell-based; settings: huvec; also: in other assays of this panel Not Active means under 50% inhibition at 10 µM
[4] = biological target: T1, Nitric oxide synthase, inducible (Mus musculus, UniProt P29477); set-up: species or system Escherichia coli;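 also: inhibition of iNOS enzyme activity measured with L-arginine as substrate; in other assays of this panel Not Active means under 50% inhibition at 10 µM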
T1 sequence (P29477 whole entry): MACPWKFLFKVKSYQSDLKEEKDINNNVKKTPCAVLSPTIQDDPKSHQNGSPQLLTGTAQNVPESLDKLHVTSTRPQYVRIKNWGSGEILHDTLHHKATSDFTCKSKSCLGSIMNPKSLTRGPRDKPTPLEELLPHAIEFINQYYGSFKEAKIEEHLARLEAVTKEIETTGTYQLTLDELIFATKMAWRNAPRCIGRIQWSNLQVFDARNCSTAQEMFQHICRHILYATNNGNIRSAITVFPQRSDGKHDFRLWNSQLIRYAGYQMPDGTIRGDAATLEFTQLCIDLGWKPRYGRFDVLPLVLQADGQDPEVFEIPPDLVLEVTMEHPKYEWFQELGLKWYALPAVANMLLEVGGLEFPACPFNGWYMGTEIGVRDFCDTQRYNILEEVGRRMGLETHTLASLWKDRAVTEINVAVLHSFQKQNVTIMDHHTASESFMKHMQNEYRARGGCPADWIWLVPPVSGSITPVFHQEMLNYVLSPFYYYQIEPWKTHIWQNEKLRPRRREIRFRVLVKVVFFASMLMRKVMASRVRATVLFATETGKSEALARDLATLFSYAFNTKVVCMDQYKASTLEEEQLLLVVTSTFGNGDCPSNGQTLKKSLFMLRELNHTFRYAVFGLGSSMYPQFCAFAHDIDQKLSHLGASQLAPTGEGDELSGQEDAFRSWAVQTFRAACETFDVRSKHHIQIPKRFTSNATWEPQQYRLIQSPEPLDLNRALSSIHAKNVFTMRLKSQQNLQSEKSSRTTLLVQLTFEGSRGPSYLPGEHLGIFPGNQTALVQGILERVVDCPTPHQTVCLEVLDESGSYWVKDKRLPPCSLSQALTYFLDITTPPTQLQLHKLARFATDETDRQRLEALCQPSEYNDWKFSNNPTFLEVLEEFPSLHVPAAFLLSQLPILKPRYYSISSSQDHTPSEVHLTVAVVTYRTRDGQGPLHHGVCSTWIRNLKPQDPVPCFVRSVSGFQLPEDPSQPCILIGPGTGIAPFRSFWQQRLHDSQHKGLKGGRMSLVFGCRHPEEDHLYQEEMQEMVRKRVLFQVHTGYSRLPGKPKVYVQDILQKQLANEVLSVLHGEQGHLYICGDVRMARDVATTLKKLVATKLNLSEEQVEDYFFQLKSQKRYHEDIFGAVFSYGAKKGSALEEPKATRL

[5] = DRUGMATRIX: Glutamate, Kainate radioligand binding (ligand: [3H] Kainic acid); type: cell membranes, Rattus norvegicus, Wistar, Brain, Membrane; settings: Not Active = under 50% inhibition at 10 µM
[6] = biological target: Cytochrome P450 2C9 (Homo sapiens, UniProt P11712); settings: bti-tn-5b1-4; also: in other assays of this panel Not Active means under 50% inhibition at 10 µM
[7] = biological target: T2, C-X-C chemokine receptor type 2 (Homo sapiens, UniProt P25025); type: cell membranes, Membrane; settings: cho-k1; also: in other assays of this panel Not Active means under 50% inhibition at 10 µM
T2 sequence (P25025 whole entry): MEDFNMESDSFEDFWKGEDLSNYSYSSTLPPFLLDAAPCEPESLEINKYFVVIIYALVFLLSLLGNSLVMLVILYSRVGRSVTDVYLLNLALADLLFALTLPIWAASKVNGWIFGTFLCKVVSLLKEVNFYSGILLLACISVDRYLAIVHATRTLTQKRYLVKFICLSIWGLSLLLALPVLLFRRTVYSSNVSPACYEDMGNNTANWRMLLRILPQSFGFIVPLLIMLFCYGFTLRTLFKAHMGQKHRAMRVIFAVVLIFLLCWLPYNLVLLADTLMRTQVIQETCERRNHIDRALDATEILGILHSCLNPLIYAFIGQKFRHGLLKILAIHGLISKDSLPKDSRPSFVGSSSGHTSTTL

[8] = DRUGMATRIX: Phosphodiesterase PDE3 enzyme inhibition (substrate: [3H]cAMP + cAMP); type: tissue-based, Homo sapiens; settings: platelet; Not Active = under 50% inhibition at 10 µM

C-C chemokine receptor type 2, sequence (P41597 whole entry): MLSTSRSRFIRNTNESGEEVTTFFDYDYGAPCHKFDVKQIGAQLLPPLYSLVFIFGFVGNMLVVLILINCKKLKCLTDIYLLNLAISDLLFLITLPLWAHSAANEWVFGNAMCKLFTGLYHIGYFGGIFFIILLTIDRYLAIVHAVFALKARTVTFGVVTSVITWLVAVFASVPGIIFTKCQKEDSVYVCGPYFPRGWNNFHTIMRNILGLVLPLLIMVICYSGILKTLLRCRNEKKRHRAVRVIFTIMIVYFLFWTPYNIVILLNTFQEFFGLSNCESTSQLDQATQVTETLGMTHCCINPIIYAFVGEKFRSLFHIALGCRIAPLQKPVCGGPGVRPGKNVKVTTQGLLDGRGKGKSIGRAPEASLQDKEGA
Cytochrome P450 2C9, sequence (P11712 whole entry): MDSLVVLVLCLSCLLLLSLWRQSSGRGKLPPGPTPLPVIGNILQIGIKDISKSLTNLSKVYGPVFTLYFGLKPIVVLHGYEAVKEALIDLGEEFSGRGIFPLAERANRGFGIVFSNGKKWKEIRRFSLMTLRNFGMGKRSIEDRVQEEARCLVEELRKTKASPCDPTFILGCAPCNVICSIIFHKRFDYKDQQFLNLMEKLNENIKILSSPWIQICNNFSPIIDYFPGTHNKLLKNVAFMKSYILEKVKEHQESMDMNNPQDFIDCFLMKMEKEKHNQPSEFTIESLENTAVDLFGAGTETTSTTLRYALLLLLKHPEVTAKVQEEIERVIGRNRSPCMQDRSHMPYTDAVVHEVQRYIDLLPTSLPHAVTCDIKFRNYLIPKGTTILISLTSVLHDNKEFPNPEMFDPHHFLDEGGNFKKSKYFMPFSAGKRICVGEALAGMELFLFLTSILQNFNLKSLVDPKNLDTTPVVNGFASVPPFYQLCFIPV
Vascular endothelial growth factor receptor 1, sequence (P17948 whole entry): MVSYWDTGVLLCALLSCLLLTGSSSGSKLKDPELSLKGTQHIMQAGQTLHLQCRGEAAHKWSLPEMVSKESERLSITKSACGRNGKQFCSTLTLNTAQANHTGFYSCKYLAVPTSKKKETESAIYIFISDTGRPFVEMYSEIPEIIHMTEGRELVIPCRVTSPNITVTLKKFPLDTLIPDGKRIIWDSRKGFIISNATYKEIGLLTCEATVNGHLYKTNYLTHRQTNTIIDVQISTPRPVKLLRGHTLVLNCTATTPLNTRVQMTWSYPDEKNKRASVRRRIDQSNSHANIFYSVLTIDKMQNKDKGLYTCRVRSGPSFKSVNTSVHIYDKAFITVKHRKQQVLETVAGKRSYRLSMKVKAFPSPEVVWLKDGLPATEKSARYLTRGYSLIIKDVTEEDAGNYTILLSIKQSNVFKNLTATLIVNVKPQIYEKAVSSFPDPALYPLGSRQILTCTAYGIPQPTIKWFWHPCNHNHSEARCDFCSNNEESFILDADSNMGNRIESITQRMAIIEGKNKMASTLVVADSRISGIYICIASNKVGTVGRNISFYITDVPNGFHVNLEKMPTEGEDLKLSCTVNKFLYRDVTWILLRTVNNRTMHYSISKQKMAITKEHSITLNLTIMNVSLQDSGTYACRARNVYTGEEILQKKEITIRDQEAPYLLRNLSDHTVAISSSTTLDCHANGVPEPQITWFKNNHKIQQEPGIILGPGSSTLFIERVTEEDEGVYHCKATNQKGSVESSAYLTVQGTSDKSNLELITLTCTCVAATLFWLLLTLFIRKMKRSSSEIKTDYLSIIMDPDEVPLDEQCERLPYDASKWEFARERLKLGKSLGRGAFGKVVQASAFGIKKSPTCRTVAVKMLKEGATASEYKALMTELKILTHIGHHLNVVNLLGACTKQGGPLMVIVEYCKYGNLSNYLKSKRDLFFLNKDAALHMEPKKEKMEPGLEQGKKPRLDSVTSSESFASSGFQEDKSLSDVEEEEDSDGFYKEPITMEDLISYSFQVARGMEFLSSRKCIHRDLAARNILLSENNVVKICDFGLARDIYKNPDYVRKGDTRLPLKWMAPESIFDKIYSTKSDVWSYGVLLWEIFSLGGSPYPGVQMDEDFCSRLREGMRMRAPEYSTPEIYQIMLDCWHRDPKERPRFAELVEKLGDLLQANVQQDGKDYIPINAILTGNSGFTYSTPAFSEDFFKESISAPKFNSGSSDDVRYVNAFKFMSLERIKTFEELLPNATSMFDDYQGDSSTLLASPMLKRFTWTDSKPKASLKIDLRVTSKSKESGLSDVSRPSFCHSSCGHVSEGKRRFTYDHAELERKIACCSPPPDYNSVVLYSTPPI

Nc1nc2c(ncn2COCCO)c(=O)[nH]1 [ACYCLOVIR]
Not Active: IC50 [1] | Ki [1] | IC50 [2] | IC50 [3] | IC50 [4] | IC50 [5] | Ki [5] | IC50 [6] | Ki [6] | IC50 [7] | IC50 [8] | Ki [8]

NCCCCCC(=O)O [AMINOCAPROIC ACID]
Not Active: IC50 [1] | Ki [1] | IC50 [2] | IC50 [3] | IC50 [4] | IC50 [5] | Ki [5] | IC50 [6] | Ki [6] | IC50 [7] | IC50 [8] | Ki [8]

CCC1(c2ccc(N)cc2)CCC(=O)NC1=O (configuration not stated) [AMINOGLUTETHIMIDE]
Not Active: IC50 [1] | Ki [1] | IC50 [2] | IC50 [3] | IC50 [4] | IC50 [5] | Ki [5] | IC50 [6] | Ki [6] | IC50 [7] | IC50 [8] | Ki [8]

Nc1ncn([C@@H]2O[C@H](CO)[C@@H](O)[C@H]2O)c(=O)n1 [AZACITIDINE]
Not Active: IC50 [1] | Ki [1] | IC50 [2] | IC50 [3] | IC50 [4] | IC50 [5] | Ki [5] | IC50 [6] | Ki [6] | IC50 [7] | IC50 [8] | Ki [8]

CNCCc1ccccn1 [BETAHISTINE]
Not Active: IC50 [1] | Ki [1] | IC50 [2] | IC50 [3] | IC50 [4] | IC50 [5] | Ki [5] | IC50 [6] | Ki [6] | IC50 [7] | IC50 [8] | Ki [8]

Cc1ccc(-c2cc(C(F)(F)F)nn2-c2ccc(S(N)(=O)=O)cc2)cc1 [CELECOXIB]
Not Active: IC50 [1] | Ki [1] | IC50 [2] | IC50 [3] | IC50 [4] | IC50 [5] | Ki [5] | IC50 [6] | Ki [6] | IC50 [7] | IC50 [8] | Ki [8]

O=C(O)CCCc1ccc(N(CCCl)CCCl)cc1 [CHLORAMBUCIL]
Not Active: IC50 [1] | Ki [1] | IC50 [2] | IC50 [3] | IC50 [4] | IC50 [5] | Ki [5] | IC50 [6] | Ki [6] | IC50 [7] | IC50 [8] | Ki [8]

C[C@H](CCC(=O)O)[C@H]1CC[C@H]2[C@@H]3[C@H](O)C[C@@H]4C[C@H](O)CC[C@]4(C)[C@H]3C[C@H](O)[C@]12C [CHOLIC ACID]
Not Active: IC50 [1] | Ki [1] | IC50 [2] | IC50 [3] | IC50 [4] | IC50 [5] | Ki [5] | IC50 [6] | Ki [6] | IC50 [7] | IC50 [8] | Ki [8]

CC(C)(Oc1ccc(Cl)cc1)C(=O)O [CLOFIBRIC ACID]
Not Active: IC50 [1] | Ki [1] | IC50 [2] | IC50 [3] | IC50 [4] | IC50 [5] | Ki [5] | IC50 [7] | IC50 [8] | Ki [8]

Clc1cccc(Cl)c1NC1=NCCN1 [CLONIDINE]
Not Active: IC50 [1] | Ki [1] | IC50 [2] | IC50 [3] | IC50 [4] | IC50 [5] | Ki [5] | IC50 [6] | Ki [6] | IC50 [7] | IC50 [8] | Ki [8]

CNCCCN1c2ccccc2CCc2ccccc21 [DESIPRAMINE]
Not Active: IC50 [1] | Ki [1] | IC50 [2] | IC50 [3] | IC50 [4] | IC50 [5] | Ki [5] | IC50 [6] | Ki [6] | IC50 [7] | IC50 [8] | Ki [8]

CC(=O)O[C@@]12CO[C@@H]1C[C@H](O)[C@@]1(C)C(=O)[C@H](O)C3=C(C)[C@@H](OC(=O)[C@H](O)[C@@H](NC(=O)OC(C)(C)C)c4ccccc4)C[C@@](O)([C@@H](OC(=O)c4ccccc4)[C@H]21)C3(C)C.O.O.O [DOCETAXEL]
Not Active: IC50 [1] | Ki [1] | IC50 [2] | IC50 [3] | IC50 [4] | IC50 [5] | Ki [5] | IC50 [6] | Ki [6] | IC50 [7] | IC50 [8] | Ki [8]

C[C@H]1c2cccc(O)c2C(=O)C2=C(O)[C@]3(O)C(=O)C(C(N)=O)=C(O)[C@@H](N(C)C)[C@@H]3[C@@H](O)[C@@H]21.O [DOXYCYCLINE]
Not Active: IC50 [1] | Ki [1] | IC50 [2] | IC50 [3] | IC50 [4] | IC50 [5] | Ki [5] | IC50 [6] | Ki [6] | IC50 [7] | IC50 [8] | Ki [8]

C[C@]12CC[C@@H]3c4ccc(O)cc4CC[C@H]3[C@@H]1CCC2=O [ESTRONE]
Not Active: IC50 [1] | Ki [1] | IC50 [2] | IC50 [3] | IC50 [4] | IC50 [5] | Ki [5] | IC50 [7] | IC50 [8] | Ki [8]

N=C(N)NCCN1CCCCCCC1 [GUANETHIDINE]
Not Active: IC50 [1] | Ki [1] | IC50 [2] | IC50 [3] | IC50 [4] | IC50 [5] | Ki [5] | IC50 [7] | IC50 [8] | Ki [8]

Nc1nc(N)nc(-c2cc(Cl)ccc2Cl)n1.O=C(O)/C=C\C(=O)O [IRSOGLADINE MALEATE]
Not Active: IC50 [1] | Ki [1] | IC50 [2] | IC50 [3] | IC50 [4] | IC50 [5] | Ki [5] | IC50 [6] | Ki [6] | IC50 [7] | IC50 [8] | Ki [8]

C[C@](N)(Cc1ccc(O)c(O)c1)C(=O)O [METHYLDOPA]
Not Active: IC50 [1] | Ki [1] | IC50 [2] | IC50 [3] | IC50 [4] | IC50 [5] | Ki [5] | IC50 [6] | Ki [6] | IC50 [7] | IC50 [8] | Ki [8]

C[C@]12CCC(=O)C=C1CC[C@@H]1[C@@H]2CC[C@@]2(C)[C@H]1CC[C@]2(C)O [METHYLTESTOSTERONE]
Not Active: IC50 [1] | Ki [1] | IC50 [2] | IC50 [3] | IC50 [4] | IC50 [5] | Ki [5] | IC50 [6] | Ki [6] | IC50 [7] | IC50 [8] | Ki [8]

CC(O)CO (configuration not stated) [PROPYLENE GLYCOL]
Not Active: IC50 [1] | Ki [1] | IC50 [2] | IC50 [3] | IC50 [4] | IC50 [5] | Ki [5] | IC50 [6] | Ki [6] | IC50 [7] | IC50 [8] | Ki [8]
